# Assay results reported in patent publication US20200038513A1, “MODULATORS OF FAK PROTEOLYSIS AND ASSOCIATED METHODS OF USE” (ARVINAS OPERATIONS, INC., priority 2018, published 2020).
# System: MDA-MB-231 cells
# Test: RPPA (reverse phase protein array)
# Type: cell-based, human
# Conditions: 500nM
# Experimental: RPPA analysis was performed by MD Anderson Cancer Center RPPA core facility.
# Examination of the Molecular Signaling Events) and/or Downstream Pathways Responsible for the Migration and Invasion Effects Observed by Exemplary Compound Treatment. To pinpoint these observations to a molecular signaling event or specific downstream pathway, reverse phase protein array (RPPA) analysis was performed (Table 4).
structure (smiles),measurement,value
"Cc1ncsc1-c1ccc(CNC(=O)[C@@H]2C[C@@H](O)CN2C(=O)[C@@H](NC(=O)CCOCCOc2ccc(Nc3ncc(C(F)(F)F)c(NCc4cccc(N(C)S(C)(=O)=O)c4)n3)cc2)C(C)(C)C)cc1 [Compound 102, (2S,4R)-1-((S)-3,3-dimethyl-2-(3-(2-(4-((4-((3-(N-methylmethylsulfonamido)benzyl)amino)-5-(trifluoromethyl)pyrimidin-2-yl)amino)phenoxy)ethoxy)propanamido)butanoyl)-4-hydroxy-N-(4-(4-methylthiazol-5-yl)benzyl)pyrrolidine-2-carboxamide]","rel. Protein level, 4E-BP1",110.6%
same,"rel. Protein level, 4E-BP1_pS65",92.3%
same,"rel. Protein level, 14-3-3-beta",100.5%
same,"rel. Protein level, 14-3-3-zeta",105.4%
same,"rel. Protein level, 53BP1",111.3%
same,"rel. Protein level, A-Raf",106.5%
same,"rel. Protein level, ACC1",103.3%
same,"rel. Protein level, ACC_pS79",95.4%
same,"rel. Protein level, ADAR1",121.2%
same,"rel. Protein level, AMPK-a2_pS345",97.2%
same,"rel. Protein level, AMPKa",105.1%
same,"rel. Protein level, AMPKa_pT172",92.7%
same,"rel. Protein level, AR",85.0%
same,"rel. Protein level, ARID1A",121.1%
same,"rel. Protein level, ATM",106.8%
same,"rel. Protein level, ATM_pS1981",99.7%
same,"rel. Protein level, ATR_pS428",99.2%
same,"rel. Protein level, Akt",101.7%
same,"rel. Protein level, Akt_pS473",74.2%
same,"rel. Protein level, Akt_pT308",94.2%
same,"rel. Protein level, Annexin-I",117.8%
same,"rel. Protein level, Annexin-VII",110.0%
same,"rel. Protein level, Atg3",98.3%
same,"rel. Protein level, Atg7",100.8%
same,"rel. Protein level, Aurora-B",92.3%
same,"rel. Protein level, Axl",94.7%
same,"rel. Protein level, B7-H4",97.5%
same,"rel. Protein level, B-Raf",110.9%
same,"rel. Protein level, B-Raf_pS445",108.0%
same,"rel. Protein level, BAP1",96.8%
same,"rel. Protein level, BRD4",118.7%
same,"rel. Protein level, Bad_pS112",102.3%
same,"rel. Protein level, Bak",100.7%
same,"rel. Protein level, Bax",110.5%
same,"rel. Protein level, Bc1-xL",97.6%
same,"rel. Protein level, Bc12",92.8%
same,"rel. Protein level, Beclin_l",100.0%
same,"rel. Protein level, BiP-GRP78",103.0%
same,"rel. Protein level, Bid",102.8%
same,"rel. Protein level, Bim",102.9%
same,"rel. Protein level, C-Raf",100.8%
same,"rel. Protein level, C-Raf_pS338",90.7%
same,"rel. Protein level, CD4",101.8%
same,"rel. Protein level, CD20",92.3%
same,"rel. Protein level, CD29",104.7%
same,"rel. Protein level, CD31",98.2%
same,"rel. Protein level, CD44",106.6%
same,"rel. Protein level, CD45",97.9%
same,"rel. Protein level, CD49b",116.5%
same,"rel. Protein level, CD134",99.0%
same,"rel. Protein level, CDK1_pT14",94.6%
same,"rel. Protein level, COG3",107.9%
same,"rel. Protein level, Caspase-3",106.7%
same,"rel. Protein level, Caspase-7-cleaved-",113.1%
same,"rel. Protein level, Caspase-8",102.4%
same,"rel. Protein level, Caveolin-1",141.0%
same,"rel. Protein level, Chk2",94.4%
same,"rel. Protein level, Chk2_pT68",103.4%
same,"rel. Protein level, Chkl",92.3%
same,"rel. Protein level, Chkl_pS296",96.6%
same,"rel. Protein level, Claudin-7",101.6%
same,"rel. Protein level, Collagen-VI",93.4%
same,"rel. Protein level, Connexin-43",92.3%
same,"rel. Protein level, Cox2",171.3%
same,"rel. Protein level, Cox-IV",104.5%
same,"rel. Protein level, Creb",103.4%
same,"rel. Protein level, Cyclin-B1",96.7%
same,"rel. Protein level, Cyclin-D1",105.2%
same,"rel. Protein level, Cyclin-D3",94.7%
same,"rel. Protein level, Cyclin-E1",110.5%
same,"rel. Protein level, Cyclophilin-F",97.6%
same,"rel. Protein level, D-a-Tubulin",95.2%
same,"rel. Protein level, DJ1",103.5%
same,"rel. Protein level, DM-Histone-H3",108.5%
same,"rel. Protein level, DM-K9-Histone-H3",111.9%
same,"rel. Protein level, DUSP4",142.6%
same,"rel. Protein level, E2F1",98.2%
same,"rel. Protein level, E-Cadherin",92.7%
same,"rel. Protein level, EGFR",98.2%
same,"rel. Protein level, EGFR_pY1173",101.5%
same,"rel. Protein level, EMA",109.4%
same,"rel. Protein level, ENY2",95.1%
same,"rel. Protein level, ER",98.1%
same,"rel. Protein level, ER-a_pS118",109.9%
same,"rel. Protein level, ERCC1",93.6%
same,"rel. Protein level, ERCC5",103.3%
same,"rel. Protein level, Elk1_pS383",97.5%
same,"rel. Protein level, Ets-1",97.7%
same,"rel. Protein level, FAK",55.4%
same,"rel. Protein level, FAK_pY397",86.4%
same,"rel. Protein level, FASN",92.6%
same,"rel. Protein level, FOXM1",92.4%
same,"rel. Protein level, Fibronectin",103.9%
same,"rel. Protein level, FoxO3a",100.5%
same,"rel. Protein level, FoxO3a_pS318_S321",96.0%
same,"rel. Protein level, G6PD",97.7%
same,"rel. Protein level, GAPDH",99.4%
same,"rel. Protein level, GATA3",97.2%
same,"rel. Protein level, GATA-6",99.4%
same,"rel. Protein level, GCLM",99.9%
same,"rel. Protein level, GCN5L2",99.4%
same,"rel. Protein level, GSK-3a-b",107.2%
same,"rel. Protein level, GSK-3a-b_pS21_S9",97.0%
same,"rel. Protein level, Gab2",100.5%
same,"rel. Protein level, Glutamate-D1-2",95.5%
same,"rel. Protein level, Glutaminase",111.5%
same,"rel. Protein level, Granzyme-B",101.4%
same,"rel. Protein level, Gys",111.6%
same,"rel. Protein level, Gys_pS641",105.2%
same,"rel. Protein level, H2AX_pS140",117.7%
same,"rel. Protein level, HER2",106.9%
same,"rel. Protein level, HER2_pY1248",97.5%
same,"rel. Protein level, HER3",102.8%
same,"rel. Protein level, HER3_pY1289",96.9%
same,"rel. Protein level, HES1",92.3%
same,"rel. Protein level, HLA-DR-DP-DQ-DX",101.7%
same,"rel. Protein level, HSP27",96.5%
same,"rel. Protein level, HSP27_pS82",95.4%
same,"rel. Protein level, HSP70",105.2%
same,"rel. Protein level, Heregulin",113.3%
same,"rel. Protein level, Hexokinase-II",99.4%
same,"rel. Protein level, Hif-l-alpha",130.8%
same,"rel. Protein level, Histone-H3",131.4%
same,"rel. Protein level, IGF1R_pY1135_Y1136",97.2%
same,"rel. Protein level, IGFBP2",89.0%
same,"rel. Protein level, IGFRb",98.5%
same,"rel. Protein level, INPP4b",98.0%
same,"rel. Protein level, IR-b",111.4%
same,"rel. Protein level, IRF-1",111.6%
same,"rel. Protein level, IRS1",101.4%
same,"rel. Protein level, JNK2",103.8%
same,"rel. Protein level, JNK_pT183_Y185",98.5%
same,"rel. Protein level, Jagged1",111.0%
same,"rel. Protein level, Jak2",107.2%
same,"rel. Protein level, LC3A-B",106.5%
same,"rel. Protein level, LDHA",123.8%
same,"rel. Protein level, LRP6_pS1490",128.4%
same,"rel. Protein level, Lck",96.8%
same,"rel. Protein level, MAPK_pT202-Y204",93.7%
same,"rel. Protein level, MCT4",126.7%
same,"rel. Protein level, MDM2_pS166",94.8%
same,"rel. Protein level, MEK1",106.4%
same,"rel. Protein level, MEK1_p_S217-S221",95.0%
same,"rel. Protein level, MERIT40_pS29",92.3%
same,"rel. Protein level, MIF",107.4%
same,"rel. Protein level, MIG6",106.7%
same,"rel. Protein level, MMP2",103.9%
same,"rel. Protein level, MMP14-[EP1264Y]",137.5%
same,"rel. Protein level, MMP-14",120.9%
same,"rel. Protein level, MSH6",97.8%
same,"rel. Protein level, MSI2",93.5%
same,"rel. Protein level, Mcl-1",89.4%
same,"rel. Protein level, Merlin",94.1%
